The text below walks through data of US9868772B2 (INDIANA UNIVERSITY RESEARCH AND TECHNOLOGY CORPORATION, priority 2012, dated 2018).

The target in one assay is T1, GLP-1 receptor (Homo sapiens, UniProt P43220).
T1 construct: expressed in transfected cells; host or cells: HEK293
Kind of assay: cAMP induction, firefly luciferase reporter assay in HEK293 cells co-transfected with receptor. It counts as cell-based. The settings on record: Table 2, analogs of SEQ ID NO: 10. The protocol: (§1) The ability of glucagon analogs to induce cAMP was measured in a firefly luciferase-based reporter assay. […] At the end of the incubation 100 microliters of LucLite luminescence substrate reagent (Perkin-Elmer, Wellesley, Mass.) were added to each well. […] Effective 50% concentrations were calculated by using Origin software (OriginLab, Northampton, Mass.
(In a reporter assay the amount or activity of a reporter protein is the signal.)

The next assay deals with T2, glucagon receptor (Homo sapiens, UniProt P47871).
T2 construct: expressed in transfected cells; host or cells: HEK293
Described as above. Format: cell-based. The settings on record: Table 2, analogs of SEQ ID NO: 10. How it is done: as §1

For assay [1], the target named is T3, GIP receptor (Homo sapiens, UniProt P48546).
T3 construct: expressed in transfected cells; host or cells: HEK293
T3 sequence (P48546 22-466): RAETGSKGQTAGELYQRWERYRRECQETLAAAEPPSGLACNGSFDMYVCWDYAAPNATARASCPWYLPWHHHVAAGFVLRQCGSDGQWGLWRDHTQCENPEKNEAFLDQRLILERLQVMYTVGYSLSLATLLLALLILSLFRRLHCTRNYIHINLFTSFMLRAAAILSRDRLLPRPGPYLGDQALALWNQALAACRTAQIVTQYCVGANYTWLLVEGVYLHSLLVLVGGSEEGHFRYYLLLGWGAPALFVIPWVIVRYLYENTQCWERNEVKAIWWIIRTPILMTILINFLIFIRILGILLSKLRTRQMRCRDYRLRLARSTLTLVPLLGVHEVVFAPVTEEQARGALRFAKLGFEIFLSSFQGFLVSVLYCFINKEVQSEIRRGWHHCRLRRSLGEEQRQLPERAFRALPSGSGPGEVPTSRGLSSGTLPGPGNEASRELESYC
The description is as above. The following applies: Table 2, analogs of SEQ ID NO: 10. It counts as cell-based. How it is done:
as §1

For assay [2], the target named is T3, GIP receptor. The following applies: relative to native GIP; cited from earlier work.

Numbered stars: 1 amine (or outer) side, 2 acyl side, 3 side chain; on linkers, the order of the positions; unused ones are H or OH. Square brackets hold non-standard residues; d marks the D form. Side chains are listed from the residue outwards. Peptide text beside a SMILES is read from it. * marks the point of attachment. γGlu = O=C(O)[C@H](CCC(=O)[*:2])N[*:1]; Desaminotyrosyl = O=C(CCc1ccc(O)cc1)*; Palmitoyl = CCCCCCCCCCCCCCCC(=O)*

T2 sequence (P47871 26-477): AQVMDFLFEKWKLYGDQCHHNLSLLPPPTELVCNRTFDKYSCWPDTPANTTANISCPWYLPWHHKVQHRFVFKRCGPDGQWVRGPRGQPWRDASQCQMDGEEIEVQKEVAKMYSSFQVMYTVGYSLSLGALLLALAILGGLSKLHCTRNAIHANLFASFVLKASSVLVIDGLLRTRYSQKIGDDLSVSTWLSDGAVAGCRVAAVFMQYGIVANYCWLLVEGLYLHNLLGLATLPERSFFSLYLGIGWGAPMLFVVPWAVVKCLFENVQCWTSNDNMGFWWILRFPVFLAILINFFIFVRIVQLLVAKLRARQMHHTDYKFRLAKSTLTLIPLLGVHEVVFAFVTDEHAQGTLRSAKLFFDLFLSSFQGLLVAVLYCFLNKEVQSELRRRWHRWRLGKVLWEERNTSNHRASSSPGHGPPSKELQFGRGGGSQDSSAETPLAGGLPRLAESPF
T1 sequence (P43220 24-463): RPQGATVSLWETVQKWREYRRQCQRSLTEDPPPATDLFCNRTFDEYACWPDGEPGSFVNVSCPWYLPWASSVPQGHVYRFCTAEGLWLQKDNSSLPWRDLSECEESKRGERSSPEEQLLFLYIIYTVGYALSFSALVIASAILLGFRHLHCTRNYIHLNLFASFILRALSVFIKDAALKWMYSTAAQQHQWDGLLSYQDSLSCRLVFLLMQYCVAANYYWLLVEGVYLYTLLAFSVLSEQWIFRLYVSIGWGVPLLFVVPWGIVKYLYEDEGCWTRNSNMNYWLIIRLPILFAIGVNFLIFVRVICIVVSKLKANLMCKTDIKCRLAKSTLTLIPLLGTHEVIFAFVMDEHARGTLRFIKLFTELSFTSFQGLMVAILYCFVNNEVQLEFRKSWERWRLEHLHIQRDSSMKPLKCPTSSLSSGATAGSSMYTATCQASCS

In general, EC50 refers to the midpoint of the concentration-response curve. For the compound `CCCCCCCCCCCCCCCC(=O)N[C@@H](CCC(=O)NCCCC[C@H](NC(=O)[C@H](CC(=O)O)NC(=O)[C@H](CO)NC(=O)[C@@H](NC(=O)[C@H](Cc1ccccc1)NC(=O)[C@@H](NC(=O)CNC(=O)[C@H](CCC(N)=O)NC(=O)[C@H](C)NC(=O)[C@H](Cc1ccc(O)cc1)NC(C)=O)[C@@H](C)O)[C@@H](C)O)C(=O)N[C@@H](CO)C(=O)N[C@@H](CCCCN)C(=O)N[C@@H](Cc1ccc(O)cc1)C(=O)N[C@@H](CC(C)C)C(=O)N[C@@H](CC(=O)O)C(=O)N[C@@H](CCC(=O)O)C(=O)N[C@@H](CCCNC(=N)N)C(=O)N[C@@H](C)C(=O)N[C@@H](C)C(=O)N[C@@H](CCC(N)=O)C(=O)N[C@@H](CC(=O)O)C(=O)N[C@@H](Cc1ccccc1)C(=O)N[C@H](C(=O)N[C@@H](CCC(N)=O)C(=O)N[C@@H](Cc1c[nH]c2ccccc12)C(=O)N[C@@H](CC(C)C)C(=O)N[C@@H](CC(C)C)C(=O)N[C@@H](CCC(=O)O)C(=O)NCC(=O)NCC(=O)N1CCC[C@H]1C(=O)N[C@@H](CO)C(=O)N[C@@H](CO)C(=O)NCC(=O)N[C@@H](C)C(=O)N1CCC[C@H]1C(=O)N1CCC[C@H]1C(=O)N1CCC[C@H]1C(=O)N[C@@H](CO)C(N)=O)C(C)C)C(=O)O` [compound 155] (Ac-YAQGTFTSDK([γGlu-Palmitoyl])SKYLDERAAQDFVQWLLEGGPSSGAPPPS-NH2), the EC50 at GLP-1 receptor amounted to 0.06 nM; on glucagon receptor, 0.007 nM; on GIP receptor [1] it was 0.037 nM.

As to `CCCCCCCCCCCCCCCC(=O)NCCCC[C@H](NC(=O)[C@H](CO)NC(=O)[C@@H]1CCCN1C(=O)[C@@H]1CCCN1C(=O)[C@@H]1CCCN1C(=O)[C@H](C)NC(=O)CNC(=O)[C@H](CO)NC(=O)[C@H](CO)NC(=O)[C@@H]1CCCN1C(=O)CNC(=O)CNC(=O)[C@H](CCC(=O)O)NC(=O)[C@H](CC(C)C)NC(=O)[C@H](CC(C)C)NC(=O)[C@H](Cc1c[nH]c2ccccc12)NC(=O)[C@H](CCC(N)=O)NC(=O)[C@@H](NC(=O)[C@H](Cc1ccccc1)NC(=O)[C@H](CC(=O)O)NC(=O)[C@H](CCC(N)=O)NC(=O)[C@H](C)NC(=O)[C@H](C)NC(=O)[C@H](CCCNC(=N)N)NC(=O)[C@H](CCC(=O)O)NC(=O)[C@H](CC(=O)O)NC(=O)[C@H](CC(C)C)NC(=O)[C@H](Cc1ccc(O)cc1)NC(=O)[C@H](CCCCN)NC(=O)[C@H](CO)NC(=O)[C@H](Cc1ccc(O)cc1)NC(=O)[C@H](CC(=O)O)NC(=O)[C@H](CO)NC(=O)[C@@H](NC(=O)[C@H](Cc1ccccc1)NC(=O)[C@@H](NC(=O)CNC(=O)[C@H](CCC(N)=O)NC(=O)[C@H](C)NC(=O)CCc1ccc(O)cc1)[C@@H](C)O)[C@@H](C)O)C(C)C)C(=O)NCC(N)=O` [compound 157] (Desaminotyrosyl-AQGTFTSDYSKYLDERAAQDFVQWLLEGGPSSGAPPPSK(Palmitoyl)G-NH2), the EC50 is 0.013 nM on GLP-1 receptor, 0.047 nM on glucagon receptor and 0.059 nM on GIP receptor [1].

On to `CCCCCCCCCCCCCCCC(=O)N[C@@H](CCC(=O)NCCCC[C@H](NC(=O)[C@H](CC(=O)O)NC(=O)[C@H](CO)NC(=O)[C@@H](NC(=O)[C@H](Cc1ccccc1)NC(=O)[C@@H](NC(=O)CNC(=O)[C@@H](CCC(N)=O)NC(=O)[C@H](C)NC(=O)[C@H](Cc1ccc(O)cc1)NC(C)=O)[C@@H](C)O)[C@@H](C)O)C(=O)N[C@@H](CO)C(=O)N[C@@H](CCCCN)C(=O)N[C@@H](Cc1ccc(O)cc1)C(=O)N[C@@H](CC(C)C)C(=O)N[C@@H](CC(=O)O)C(=O)N[C@@H](CCC(=O)O)C(=O)N[C@@H](CCCNC(=N)N)C(=O)N[C@@H](C)C(=O)N[C@@H](C)C(=O)N[C@@H](CCC(N)=O)C(=O)N[C@@H](CC(=O)O)C(=O)N[C@@H](Cc1ccccc1)C(=O)N[C@H](C(=O)N[C@@H](CCC(N)=O)C(=O)N[C@@H](Cc1c[nH]c2ccccc12)C(=O)N[C@@H](CC(C)C)C(=O)N[C@@H](CC(C)C)C(=O)N[C@@H](CCC(=O)O)C(=O)NCC(=O)NCC(=O)N1CCC[C@H]1C(=O)N[C@@H](CO)C(=O)N[C@@H](CO)C(=O)NCC(=O)N[C@@H](C)C(=O)N1CCC[C@H]1C(=O)N1CCC[C@H]1C(=O)N1CCC[C@H]1C(=O)N[C@@H](CO)C(N)=O)C(C)C)C(=O)O` [compound 158] (Ac-YA[dQ]GTFTSDK([γGlu-Palmitoyl])SKYLDERAAQDFVQWLLEGGPSSGAPPPS-NH2), for which the 50% effective concentration (EC50) on GLP-1 receptor is 0.349 nM; at glucagon receptor, 0.416 nM; on GIP receptor [1], 0.069 nM.

Regarding `CCCCCCCCCCCCCCCC(=O)N[C@@H](CCC(=O)N[C@@H](CCC(=O)NCCCC[C@H](NC(=O)[C@H](CO)NC(=O)[C@@H]1CCCN1C(=O)[C@@H]1CCCN1C(=O)[C@@H]1CCCN1C(=O)[C@H](C)NC(=O)CNC(=O)[C@H](CO)NC(=O)[C@H](CO)NC(=O)[C@@H]1CCCN1C(=O)CNC(=O)CNC(=O)[C@H](CCC(=O)O)NC(=O)[C@H](CC(C)C)NC(=O)[C@H](CC(C)C)NC(=O)[C@H](Cc1c[nH]c2ccccc12)NC(=O)[C@H](CCC(N)=O)NC(=O)[C@@H](NC(=O)[C@H](Cc1ccccc1)NC(=O)[C@H](CC(=O)O)NC(=O)[C@H](CCC(N)=O)NC(=O)[C@H](C)NC(=O)[C@H](C)NC(=O)[C@H](CCCNC(=N)N)NC(=O)[C@H](CCC(=O)O)NC(=O)[C@H](CC(=O)O)NC(=O)[C@H](CC(C)C)NC(=O)[C@H](Cc1ccc(O)cc1)NC(=O)[C@H](CCCCN)NC(=O)[C@H](CO)NC(=O)[C@H](Cc1ccc(O)cc1)NC(=O)[C@H](CC(=O)O)NC(=O)[C@H](CO)NC(=O)[C@@H](NC(=O)[C@H](Cc1ccccc1)NC(=O)[C@@H](NC(=O)CNC(=O)[C@H](CCC(N)=O)NC(=O)[C@H](C)NC(=O)CCc1ccc(O)cc1)[C@@H](C)O)[C@@H](C)O)C(C)C)C(=O)NCC(N)=O)C(=O)O)C(=O)O` [compound 160] (Desaminotyrosyl-AQGTFTSDYSKYLDERAAQDFVQWLLEGGPSSGAPPPSK([γGlu-γGlu-Palmitoyl])G-NH2), the concentration giving a half-maximal response (EC50) came out at 0.022 nM on GLP-1 receptor, 0.049 nM at glucagon receptor and 0.086 nM on GIP receptor [1].

“Ac-[dY]AQGTFTSDYSKYLDERAAQDFVQWLLEAGPSSGAPPPSK([γGlu-γGlu-Palmitoyl])G-NH2 [compound 159]”: the EC50 on GLP-1 receptor stood at 0.009 nM; on glucagon receptor it was 0.04 nM; at GIP receptor [1], 0.08 nM.

On to “Ac-[dY]AQGTFTSDYSKYLDERAAQDFVQWLLEGGPSSGAPPPSK([γGlu-γGlu-Palmitoyl])G-NH2 [compound 149]”, for which the half-maximal effective concentration (EC50) came out at 0.002 nM at GLP-1 receptor, 0.012 nM on glucagon receptor and 0.008 nM on GIP receptor [1].

As for “Native glucagon: native human glucagon (SEQ ID NO: 1)”, the “activity of native GIP at the GIP receptor” value with GIP receptor [2] is reported as around 0%.
